In patent publication US10799522B2, “Compositions and methods relating to galectin detection” (Wayne State University, priority 2015, dated 2020):

Tested on: orthotopic human breast carcinoma xenograft (MCF10DCIS)
Experiment: dynamic PET/CT imaging, pharmacokinetics and biodistribution in tumor-bearing mice
Type: in vivo, immunedeficient nu/nu mice
Details: 10 mg/kg i.v. 15 min prior to [^18F]FPDTG; at 60 min post injection
Procedure: A single (unilateral) orthotopic breast carcinoma xenograft was established in immunedeficient nu/nu mice by injection of human breast ductal carcinoma in situ cells (MCF10DCIS) in Matrigel into one of the upper mammary fat pad.
Tumor-bearing mice (˜20-25 g) were anesthetized using inhalation of 2% isoflurane in oxygen, and their body temperature maintained at 38° C. by a heating pad with a feedback temperature control. […] Dynamic PET images were acquired in list-mode and reconstructed using OSEM algorithm at multiple time frames post radiotracer administration (0-2, 2-4, 4-6, 6-8, 8-10, 10-20, 20-30, 30-40, 40-50, 50-60 min). Thereafter, while still fixed to the positioning bed, the mice were moved with the bed into the gantry of INVEON SPECT/CT (Siemens), and CT images were acquired over the whole body area for attenuation correction of PET images and for production of PET/CT images. PET/CT fusion images were generated and analyzed in a similar manner as when studying rats.

OC[C@H]1O[C@@H](S[C@@H]2O[C@H](CO)[C@H](O)[C@H](n3cc(-c4cccc(F)c4)nn3)[C@H]2O)[C@H](O)[C@@H](n2cc(-c3cccc(F)c3)nn2)[C@H]1O [FPTDG, bis-{3-deoxy-3-[4-(3-fluorophenyl)-1H-1,2,3-triazol-1-yl]-β-D-galactopyranosyl)sulfane, reference compound]
blockade of the radiotracer uptake and retention in DCIS lesion: > 90%
